Entries after “also recorded” stand apart in the source; their conditions may differ.
Experiments:
Format in all cases: physicochemical
[1] = Storage stability at different relative humidities (XRPD analysis); details: high and low relative humidity, ambient temperature
Procedure: (§1) Sample, after being powdered in a mortar and pestle, is applied directly on a silicon plate holder. The X-ray powder diffraction pattern was measured with Philips X'Pert PRO X-ray powder diffractometer, equipped with Cu irradiation source=1.54184 Å (Ångstrom), X'Celerator (2.022° 2θ) detector. Scanning parameters: angle range: 3-40 deg., step size 0.0167, time per step 37 s, continuous scan. The described peak positions were determined using silicon powder as an internal standard.
(§2) Samples of Mavacamten Form 7 were subjected to conditions of different relative humidities at ambient temperature; TGA weight loss analysis was performed on the samples after 7 days, XRPD analysis was performed after 30 days.

[2] = TGA weight loss after storage at different relative humidities (hygroscopicity); details: for TGA weight loss after 7 days (up to 190° C.): ambient temperature
Procedure: as §2

[3] = Sauna experiments (exposure to solvent vapors, XRPD)
Procedure: as §1
Samples of Mavacamten Form 7 (about 20-30 mg) were exposed for 7 days to vapors of different solvents in a sealed chamber.

[4] = Grinding experiments (strong grinding and solvent drop grinding, XRPD); details: for XRPD analysis results: 2 minutes
Procedure: as §1
Samples of Mavacamten Form 7 were subjected to strong grinding, and to solvent drop grinding in isopropanol, ethanol, ethyl acetate, acetone and water. Grinding was carried out on the samples alone, or in the presence of a solvent. In these experiments, about 20 mg of the sample is placed in a mortar and ground with a pestle for 2 minutes. The solvent, when used, as added to the crystalline material before grinding, in a volume of 10 microliters.

[5] = Thermal stability (heating, XRPD); details: Heating 100° C., 30 minutes
Procedure: as §1
A sample of Mavacamten Form 7 was subjected to heating up to 100° C. for 30 minutes.

[6] = Stability to compression (pressure of 1 ton, XRPD); details: Pressure (1 tons), XRPD after 2 minutes
Procedure: as §1
A sample of Mavacamten Form 7 was subjected to a pressure of 1 ton (Atlas® Autopress hydraulic press, set to 1 ton). XRPD analysis was performed on the sample after 2 minutes.

[7] = Stability experiments, all tested stress conditions (summary); details: strong grinding, pressure of 1 ton, high humidity (up to 100% RH for 30 days), high temperature (up to 100° C.)
Excerpt: Example 2: Stability Experiments

- Hygroscopicity ([2]; as confirmed by TGA, different relative humidities): non-hygroscopic
- TGA weight loss after 7 days (up to 190° C.) ([2]; relative humidity 20%): 0.7%
- TGA weight loss after 7 days (up to 190° C.) ([2]; relative humidity 40%): 0.6%
- TGA weight loss after 7 days (up to 190° C.) ([2]; relative humidity 60%): 0.8%
- TGA weight loss after 7 days (up to 190° C.) ([2]; relative humidity 80%): 0.5%
- TGA weight loss after 7 days (up to 190° C.) ([2]; relative humidity 100%): 1%
- XRPD analysis results ([3]; Sauna (RT/7 days) (ethanol)): No polymorphic conversion
- XRPD analysis results ([3]; Sauna (RT/7 days) (ethyl acetate)): No polymorphic conversion
- XRPD analysis results ([3]; Sauna (RT/7 days) (isopropanol)): No polymorphic conversion
- XRPD analysis results ([3]; Sauna (RT/7 days) (water)): No polymorphic conversion
- XRPD analysis results ([4]; Solvent-drop grinding (acetone)): No polymorphic conversion
- XRPD analysis results ([4]; Solvent-drop grinding (ethanol)): No polymorphic conversion
- XRPD analysis results ([4]; Solvent-drop grinding (ethyl-acetate)): No polymorphic conversion
- XRPD analysis results ([4]; Solvent-drop grinding (isopropanol)): No polymorphic conversion
- XRPD analysis results ([4]; Solvent-drop grinding (water)): No polymorphic conversion
- XRPD analysis results ([4]; Strong grinding): No polymorphic conversion
- XRPD analysis after the grinding experiment ([4]; strong grinding and solvent drop grinding in isopropanol, ethanol, ethyl acetate, acetone and water): no change in the starting material
- XRPD analysis results [6]: No polymorphic conversion
Compound: CC(C)n1c(=O)cc(N[C@@H](C)c2ccccc2)[nH]c1=O [Mavacamten Form 7, 6-{[(1S)-1-phenylethyl]amino}-3-(propan-2-yl)-1,2,3,4-tetrahydropyrimidine-2,4-dion]
- Stability at relative humidity conditions [1]: stable at high and low relative humidity conditions
- Result (XRPD analysis) [5]: no change in the starting material; also recorded: No polymorphic conversion
- Stability under tested stress conditions [7]: stable under all tested stress conditions

Reference: patent US20250250239A1, “SOLID STATE FORMS OF MAVACAMTEN AND PROCESS FOR PREPARATION THEREOF” (Assia Chemical Industries Ltd., priority 2022, published 2025)
